This is an account of results in ChEMBL document CHEMBL1146688, “Aminoimidazoles as bioisosteres of acylguanidines: novel, potent, selective and orally bioavailable inhibitors of the sodium hydrogen exchanger isoform-1” (Bioorg Med Chem Lett, 2004).

As a reminder, the bioavailability is dose-corrected exposure relative to a reference, in per cent. In general, half-life refers to the time in which the quantity being followed falls by half. A high value points to slow loss. By IC50 is commonly meant the concentration needed to halve the response being measured.

Some results are limits rather than exact numbers.

Tested on in one data set: not listed separately
Description: Oral bioavailability in rat (dose 2.8 mg/kg p.o.). Format: ADME, organism-based. The following applies: in vivo.
Take `CC1(C)C(c2cccc(Cl)c2)[C@H]1C(=O)NC(=N)N` (single isomer, unassigned): the bioavailability is 26%.
The same measure, in the same setting: in the case of `Cc1nc(N)[nH]c1[C@@H]1C(c2cccc(Cl)c2)C1(C)C` (single isomer, unassigned) it was 26%.

Tested on in the next data set: not listed separately
As to the kind of experiment: Plasma half life in rat at oral dose 2.8 mg/mk body weight.
Details: not given
Format: ADME, organism-based.
`CC1(C)C(c2cccc(Cl)c2)[C@H]1C(=O)NC(=N)N` (single isomer, unassigned) gave a half-life of 300 min.
Same read-out and setting: the result for `Cc1nc(N)[nH]c1[C@@H]1C(c2cccc(Cl)c2)C1(C)C` (single isomer, unassigned) reads 300 min.

In another data set the target is Sodium/hydrogen exchanger 1 (Homo sapiens, UniProt P19634). As to the kind of experiment: Inhibition of sodium dependent recovery of pH following imposed acidosis in AP1 cell line expressing the human NHE-1 isoform. The data set is classed as functional, cell-based.
Chain of Sodium/hydrogen exchanger 1 (P19634 whole entry, canonical isoform): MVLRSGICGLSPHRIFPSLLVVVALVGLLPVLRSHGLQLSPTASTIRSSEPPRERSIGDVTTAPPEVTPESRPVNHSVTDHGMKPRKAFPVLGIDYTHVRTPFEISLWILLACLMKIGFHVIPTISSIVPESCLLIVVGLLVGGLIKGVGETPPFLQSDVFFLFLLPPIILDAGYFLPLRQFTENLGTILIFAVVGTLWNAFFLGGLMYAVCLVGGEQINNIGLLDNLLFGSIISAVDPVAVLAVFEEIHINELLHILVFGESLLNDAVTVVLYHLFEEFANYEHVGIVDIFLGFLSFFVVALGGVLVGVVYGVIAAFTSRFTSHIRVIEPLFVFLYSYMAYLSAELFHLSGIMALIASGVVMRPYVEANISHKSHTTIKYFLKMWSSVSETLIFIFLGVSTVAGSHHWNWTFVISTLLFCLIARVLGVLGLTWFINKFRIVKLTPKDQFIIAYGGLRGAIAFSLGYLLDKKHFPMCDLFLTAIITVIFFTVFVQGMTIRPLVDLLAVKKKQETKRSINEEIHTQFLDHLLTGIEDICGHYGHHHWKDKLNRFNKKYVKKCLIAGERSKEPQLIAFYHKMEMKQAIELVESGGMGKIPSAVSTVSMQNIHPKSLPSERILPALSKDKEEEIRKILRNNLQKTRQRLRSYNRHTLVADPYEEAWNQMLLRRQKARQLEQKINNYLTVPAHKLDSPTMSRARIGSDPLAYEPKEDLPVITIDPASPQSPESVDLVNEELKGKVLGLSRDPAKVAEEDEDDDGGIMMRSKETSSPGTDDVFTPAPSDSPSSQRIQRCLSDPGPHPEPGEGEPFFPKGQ
Details: not given
Turning to `CC1(C)[C@H](c2c[nH]cn2)[C@H]1c1cccc2c1CCO2`, the IC50 is above 30 µM.
The molecule `Cc1[nH]c(N)nc1[C@@H]1[C@@H](c2cccc3c2CCO3)C1(C)C` had a half-maximal inhibitory concentration (IC50) of 2.6 µM.
Consider `CC1(C)[C@H](c2cnc(N)s2)[C@H]1c1cccc2c1CCO2`, for which the half-maximal inhibitory concentration (IC50) was above 30 µM.
The same measure, in the same setting: the result for `CSc1nccn1[C@@H]1[C@@H](c2cccc(Cl)c2)C1(C)C` reads 4.85 µM.
The same measure, in the same setting: the result for `CC1(C)[C@H](c2c[nH]c(N)n2)[C@H]1c1cccc2c1CCO2` reads 3.8 µM; that for `CC1(C)[C@H](c2nc(N)no2)[C@H]1c1cccc2c1CCO2`, 30 µM; that for `Cc1[nH]cnc1[C@@H]1[C@@H](c2cccc3c2CCO3)C1(C)C`, 11 µM.
Same read-out and setting: the result for `CC1(C)C(c2cccc(Cl)c2)[C@H]1C(=O)NC(=N)N` (single isomer, unassigned) reads 0.021 µM; that for `Cc1[nH]cnc1[C@@H]1C(c2cc(Cl)cc(Cl)c2)C1(C)C` (single isomer, unassigned), 0.95 µM; that for `CC1(C)C(c2cc(Cl)cc(Cl)c2)[C@H]1c1cnc(N)s1` (single isomer, unassigned), above 30 µM.
As for `CC1(C)C(c2cc(Cl)cc(Cl)c2)[C@H]1c1c[nH]c(N)n1` (single isomer, unassigned), the IC50 stood at 0.18 µM.
The same measure, in the same setting: the result for `CC1(C)C(c2cc(Cl)cc(Cl)c2)[C@H]1c1cc(N)nc(N)n1` (single isomer, unassigned) reads 3.6 µM.
With `CC1(C)C(c2cccc(Cl)c2)[C@H]1c1cnc(N)s1` (single isomer, unassigned), it took 8 µM to reach half-maximal inhibition (IC50).
For the molecule `CC1(C)C(c2cccc(Cl)c2)[C@H]1c1c[nH]c(N)n1` (single isomer, unassigned), the half-maximal inhibitory concentration (IC50) amounted to 0.75 µM.
In the case of `Cc1[nH]c(N)nc1[C@@H]1C(c2cc(Cl)cc(Cl)c2)C1(C)C` (single isomer, unassigned), the 50% inhibitory concentration (IC50) came out at 0.008 µM.
On the same count and under the same terms, the result for `CC1(C)C(c2cc(Cl)cc(Cl)c2)[C@H]1c1cnc[nH]1` (single isomer, unassigned) reads 4 µM.
On the same count and under the same terms, in the case of `Cc1nc(N)[nH]c1[C@@H]1C(c2cccc(Cl)c2)C1(C)C` (single isomer, unassigned) it was 0.039 µM.
